Experimental data: patent US20250019385A1, “SPIROCYCLIC ANNULATED 2-AMINO-3-CYANO THIOPHENES AND DERIVATIVES FOR THE TREATMENT OF CANCER” (Boehringer Ingelheim International GmbH, priority 2023, published 2025)

Assays:
[1] = Caco-2 assay (permeability and efflux ratio); format: in vitro ADME; conditions: human; for Papp A→B at 90 min, 10 μM: Caco-2 apical to basolateral permeability, pH 7.4, read-out: Caco PappAB; for efflux ratio at 90 min, 10 μM: pH 7.4, Caco-2 efflux ratio PappBA/PappAB, read-out: Caco ER
Experimental: The assay provides information on the potential of a compound to pass the cell membrane, on the extent of oral absorption as well as on whether the compound is actively transported by uptake and/or efflux transporters. Permeability measurements across polarized, confluent Caco-2 cell monolayers grown on permeable filter supports (Corning, catalog #3391) are used. 10 μM test compound solution in assay buffer (128.13 mM NaCl, 5.36 mM KCl, 1 mM MgSO4, 1.8 mM CaCl2), 4.17 mM NaHCO3, 1.19 mM Na2HPO4, 0.41 mM NaH2PO4, 15 mM 2-[4-(2-hydroxyethyl)piperazin-1-yl]ethanesulfonic acid (HEPES), 20 mM glucose, pH 7.4) was added to the donor compartment of the cell chamber containing a monolayer of Caco-2 cells in between the donor and the receiver compartment. The receiver and donor compartments contain 0.25% bovine serum albumine (BSA) in assay buffer. Passive diffusion and/or active transport of compounds across the monolayer is measured in both apical to basolateral (a-b) and basolateral to apical (b-a) direction. a-b permeability (PappAB) represents drug absorption from the intestine into the blood and b-a permeability (PappBA) drug secretion from the blood back into the intestine via both passive permeability as well as active transport mechanisms mediated by efflux and uptake transporters that are expressed on the Caco-2 cells. After a pre-incubation of 25-30 min at 37° C., at predefined time points (0, 30, 60 and 90 min), samples were taken from the receiver and donor compartment, respectively. Concentrations of test compounds in samples were measured by HPLC/MS/MS, samples from the donor compartment were diluted 1:50 (v:v) with assay buffer, samples from receiver compartment were measured without dilution.
Apparent permeabilities in a-b (PappAB) and b-a (PappBA) directions are calculated according to the formula:
[formula] • Vrec [mL]: buffer volume in receiver compartment • Cdon [μmol/mL]: concentration of test compound in donor compartment at t=0 • ΔCrec: difference between concentrations of test compound in receiver compartment at start and end of incubation time • Δt: Incubation time • Vrec·ΔCrec/Δt [μmol/min]: Amount of compound transferred to receiver compartment per time • A [cm^2]: filter surface
Caco-2 efflux ratios (ER) are calculated as the ratio of PappBA/PappAB.

[2] = target: KRAS (G12D)::CRAF protein::protein interaction (Homo sapiens (Human), UniProt P01116, G12D); assay: KRAS TR-FRET assay (KRAS G12D::CRAF, GTP); format: binding
Experimental: (§1) This assay measures the inhibitory effect of compounds on KRAS::CRAF protein::protein interactions in the presence of GTP using Time-resolved fluorescence energy transfer (TR-FRET).
(§2) The following wildtype or mutant alleles of KRAS and CRAF protein have been used at the given concentrations:
KRAS (G12D) 1-169, N-terminal 6His-tag, C-terminal avi-tag (Xtal BioStructures, Inc.); final assay concentration 15 nM,
(§3) CRAF Ras binding domain, GST-tag, TEV cleavage site (Boehringer Ingelheim in house protein prep); final assay concentration 15 nM.
(§4) Test compounds dissolved in DMSO were dispensed onto assay plates (Proxiplate 384 PLUS, white, PerkinElmer; 6008289) using an Access Labcyte Workstation with the Labcyte Echo 55x. For the chosen highest assay concentration of 100 μM, 150 nl of compound solution was transferred from a 10 mM DMSO compound stock solution. A series of eleven fivefold dilutions per compound was transferred to the assay plate, compound dilutions were tested in duplicates. DMSO was added as backfill to a total volume of 150 nl.
(§5) The assay runs on a fully automated robotic system. To 150 nl of compound dilution 15 μl of a mix including the respective KRAS allele, CRAF (e.g. KRAS (G12D)::CRAF; final assay concentrations see above), GTP nucleotide (Sigma G8877; final assay concentration 10 μM), Lance Eu—W1024 labeled Streptavidin (PerkinElmer, Cat No AD0063; final assay concentration 1.5 nM) and Anti-GST surelight APC (PerkinElmer, Cat No AD0059G; final assay concentration 30 nM) in assay buffer (1×PBS, 0.1% BSA, 0.05% Tween 20) are added into columns 1-23 and 15 μL of the solution without the respective KRAS allele were added to row 24.
(§6) Plates are kept at room temperature in a darkened incubator. After 60 minutes incubation time the signal is measured in a PerkinElmer Envision HTS Multilabel Reader using the TR-FRET LANCE Ultra specs from PerkinElmer.
(§7) Each plate contains 16 wells of a negative control (diluted DMSO instead of test compound; w respective KRAS allele; column 23) and 16 wells of a positive control (diluted DMSO instead of test compound; w/o respective KRAS allele; column 24).
(§8) IC50 values were calculated and analyzed with Boehringer Ingelheim's MEGALAB 50 application using a 4 parametric logistic model.
(§9) Tables of example compounds disclosed herein contain IC50 values determined using the above assays (see Table 44).

[3] = target: KRAS (WT)::CRAF protein::protein interaction (Homo sapiens (Human), UniProt P01116); assay: KRAS TR-FRET assay (KRAS WT::CRAF, GTP); format: binding
Experimental: as §1, §2
KRAS (WT) 1-169, N-terminal 6His-tag, C-terminal avi-tag (Boehringer Ingelheim in house protein prep); final assay concentration 15 nM.
as §3, §4, §5, §6, §7, §8, §9

[4] = target: KRAS (G12V)::CRAF protein::protein interaction (Homo sapiens (Human), UniProt P01116, C118S/G12V); assay: KRAS TR-FRET assay (KRAS G12V::CRAF, GTP); format: binding
Experimental: as §1, §2
KRAS (G12V) 1-169, C118S, N-terminal 6His-tag, C-terminal avi-tag (Boehringer Ingelheim in house protein prep); final assay concentration 15 nM.
as §3, §4, §5, §6, §7, §8, §9

CYP3A4 = CYP3A4 (Homo sapiens (Human), UniProt P08684); assay: Mechanism based inhibition of CYP3A4 assay (MBI 3A4); format: in vitro ADME; conditions: human liver microsomes, 25 uM compound; hydroxy-midazolam formation after 30 min preincubation relative to 0 min
Experimental: The time dependent inhibition towards CYP3A4 is assayed in human liver microsomes (0.02 mg/mL) with midazolam (15 μM) as a substrate. The test compounds and water control (wells w/o test compound) are preincubated in presence of NADPH (1 mM) with human liver microsomes (0.2 mg/mL) at a concentration of 25 uM for 0 min and 30 min. After preincubation, the incubate is diluted 1:10 and the substrate midazolam is added for the main incubation (15 min). The main incubation is quenched with acetonitrile and the formation of hydroxy-midazolam is quantified via LC/MS-MS. The formation of hydroxy-midazolam from the 30 min preincubation relative to the formation from the 0 min preincubation is used as a readout. Values of less than 100% mean that the substrate midazolam is metabolized to a lower extent upon 30 min preincubation compared to 0 min preincubation. In general low effects upon 30 min preincubation are desired (corresponding to values close to 100%/not different to the values determined with water control).

Chain of KRAS (G12D)::CRAF protein::protein interaction (P01116 other isoform, or with tags, fused parts or gaps G12D): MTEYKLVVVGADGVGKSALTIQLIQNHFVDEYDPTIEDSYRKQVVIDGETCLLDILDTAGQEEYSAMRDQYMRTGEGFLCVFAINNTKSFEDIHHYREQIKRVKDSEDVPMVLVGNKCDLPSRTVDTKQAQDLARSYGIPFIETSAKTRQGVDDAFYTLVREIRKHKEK
Chain of KRAS (G12V)::CRAF protein::protein interaction (P01116 other isoform, or with tags, fused parts or gaps G12V/C118S): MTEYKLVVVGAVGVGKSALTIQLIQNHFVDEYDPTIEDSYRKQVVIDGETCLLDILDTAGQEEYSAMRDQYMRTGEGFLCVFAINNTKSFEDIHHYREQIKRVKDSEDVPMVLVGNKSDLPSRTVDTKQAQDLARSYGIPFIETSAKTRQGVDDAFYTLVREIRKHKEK
Chain of KRAS (WT)::CRAF protein::protein interaction (P01116 other isoform, or with tags, fused parts or gaps): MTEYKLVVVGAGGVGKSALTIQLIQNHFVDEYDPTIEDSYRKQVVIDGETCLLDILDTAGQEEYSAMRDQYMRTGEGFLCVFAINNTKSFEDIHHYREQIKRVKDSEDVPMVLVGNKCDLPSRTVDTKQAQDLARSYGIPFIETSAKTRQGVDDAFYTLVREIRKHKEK
Chain of CYP3A4 (P08684 whole entry): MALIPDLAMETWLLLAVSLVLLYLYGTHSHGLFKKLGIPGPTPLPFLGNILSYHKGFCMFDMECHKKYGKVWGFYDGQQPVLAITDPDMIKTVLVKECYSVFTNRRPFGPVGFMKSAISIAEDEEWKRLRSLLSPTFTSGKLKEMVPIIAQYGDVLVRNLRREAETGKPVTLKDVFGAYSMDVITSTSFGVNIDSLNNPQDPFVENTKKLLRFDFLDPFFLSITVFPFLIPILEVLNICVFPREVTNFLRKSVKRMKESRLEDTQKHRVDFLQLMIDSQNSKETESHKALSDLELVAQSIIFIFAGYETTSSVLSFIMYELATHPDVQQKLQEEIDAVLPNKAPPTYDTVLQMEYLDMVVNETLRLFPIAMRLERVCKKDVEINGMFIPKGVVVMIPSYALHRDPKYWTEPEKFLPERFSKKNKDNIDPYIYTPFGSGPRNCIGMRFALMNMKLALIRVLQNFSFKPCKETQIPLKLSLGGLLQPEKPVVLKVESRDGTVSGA

Compound | Papp A→B at 90 min, 10 μM [1] | efflux ratio at 90 min, 10 μM [1] | IC50 [2] | IC50 [3] | IC50 [4] | MBI 3A4 (CYP3A4)
COCCn1c(=O)n([C@@H]2CCOC2)c2nc(-c3onc4c3CCC[C@@]43CCCc4sc(N)c(C#N)c43)nc(O[C@@H](C)[C@@H]3CCCN3C)c21 [I-1] | 18 ×10⁻⁶ cm/s | 3.1 | 145 nM | 160 nM | 107 nM | 
CO[C@@H]1C[C@@H]([C@H](C)Oc2nc(-c3onc4c3CCC[C@@]43CCCc4sc(N)c(C#N)c43)nc3c2n(C)c(=O)n3[C@@H]2CCOC2)N(C)C1 [I-3] | 29 ×10⁻⁶ cm/s | 1.9 | 71 nM | 101 nM | 69 nM | 
C[C@H](Oc1nc(-c2onc3c2CCC[C@@]32CCCc3sc(N)c(C#N)c32)nc2c1[nH]c(=O)n2[C@@H]1CCOC1)[C@@H]1CCCN1C [I-8] | 0.8 ×10⁻⁶ cm/s | 46.3 | 47 nM | 45 nM | 20 nM | 61%
C[C@H](Oc1nc(-c2onc3c2CCC[C@@]32CCCc3sc(N)c(C#N)c32)nc2c1n(C)c(=O)n2[C@H]1CCOC1)[C@@H]1CCCN1C [I-9] | 20 ×10⁻⁶ cm/s | 2.7 | 418 nM | 611 nM | 199 nM | 83%
C[C@H](Oc1nc(-c2onc3c2CCC[C@@]32CCCc3sc(N)c(C#N)c32)nc2c1n(C)c(=O)n2[C@@H]1CCOC1)[C@@H]1CCCN1C [I-20] | 11.9 ×10⁻⁶ cm/s | 6.2 | 46 nM | 50 nM | 21 nM | 92%
CCn1c(=O)n([C@@H]2CCCOC2)c2nc(-c3onc4c3CCC[C@@]43CCCc4sc(N)c(C#N)c43)nc(O[C@@H](C)[C@@H]3CCCN3C)c21 [I-30] |  | 0.7 | 163 nM | 153 nM | 102 nM | 
CC(C)n1c(=O)n([C@@H]2CCOC2)c2nc(-c3onc4c3CCC[C@@]43CCCc4sc(N)c(C#N)c43)nc(O[C@@H](C)[C@@H]3CCCN3C)c21 [I-32] |  |  | 478 nM | 605 nM | 191 nM | 
Cc1nc2c(O[C@@H](C)[C@@H]3CCCN3C)nc(-c3onc4c3CCC[C@@]43CCCc4sc(N)c(C#N)c43)nc2n1[C@@H]1CCOC1 [I-39] |  |  | 50 nM | 52 nM | 62 nM | 
Cc1cc2c(O[C@@H](C)[C@@H]3CCCN3C)nc(-c3onc4c3CCC[C@@]43CCCc4sc(N)c(C#N)c43)nc2n1[C@@H]1CCOC1 [I-40] |  |  | 182 nM | 233 nM | 119 nM | 
Cc1cn([C@@H]2CCOC2)c2nc(-c3onc4c3CCC[C@@]43CCCc4sc(N)c(C#N)c43)nc(O[C@@H](C)[C@@H]3CCCN3C)c12 [I-41] |  |  | 362 nM | 1830 nM | 405 nM | 
Cc1nn([C@@H]2CCOC2)c2nc(-c3onc4c3CCC[C@@]43CCCc4sc(N)c(C#N)c43)nc(O[C@@H](C)[C@@H]3CCCN3C)c12 [I-42] |  |  | 263 nM | 273 nM | 115 nM | 
C[C@H](Oc1nc(-c2noc3c2CCC[C@@]32CCCc3sc(N)c(C#N)c32)nc2c1cnn2[C@@H]1CCOC1)[C@@H]1CCCN1C [II-4] |  |  | 97 nM | 81 nM | 50 nM | 
C[C@H](Oc1nc(-c2noc3c2CCC[C@@]32CCCc3sc(N)c(C#N)c32)nc2c1COC[C@@]21CCOC1)[C@@H]1CCCN1C [II-9a] |  |  | 283 nM | 581 nM | 142 nM | 
C[C@H](Oc1nc(-c2noc3c2CCC[C@@]32CCCc3sc(N)c(C#N)c32)nc2c1CCCO[C@]21CCOC1)[C@@H]1CCCN1C [II-10] |  |  | 128 nM | 56 nM | 38 nM | 
C[C@H](Oc1nc(-c2noc3c2CCC[C@@]32CCCc3sc(N)c(C#N)c32)nc2c1CNC[C@]21CCOC1)[C@@H]1CCCN1C [II-15] |  |  | 18 nM | 40 nM | 17 nM | 

The remaining compounds from weak to strong by IC50 [2], led by results:

Papp A→B at 90 min, 10 μM [1] | efflux ratio at 90 min, 10 μM [1] | IC50 [2] | IC50 [3] | IC50 [4] | MBI 3A4 (CYP3A4) | Compound
 |  | 255 nM | 326 nM | 149 nM |  | C[C@H](Oc1nc(-c2onc3c2CCC[C@@]32CCCc3sc(N)c(C#N)c32)nc2c1cnn2[C@@H]1CCOC1)[C@@H]1CCCN1C [I-43]
19 ×10⁻⁶ cm/s | 3.8 | 85 nM | 95 nM | 37 nM |  | CCn1c(=O)n([C@@H]2CCOC2)c2nc(-c3onc4c3CCC[C@@]43CCCc4sc(N)c(C#N)c43)nc(O[C@@H](C)[C@@H]3CCCN3C)c21 [I-21]
25.5 ×10⁻⁶ cm/s | 1.7 | 62 nM | 37 nM | 22 nM | 75% | C[C@H](Oc1nc(-c2onc3c2CCC[C@@]32CCCc3sc(N)c(C#N)c32)nc2c1n(C)c(=O)n2[C@@H]1CCCOC1)[C@@H]1CCCN1C [I-12]
 |  | 45 nM | 139 nM | 70 nM |  | C[C@H](Oc1nc(-c2onc3c2CCC[C@@]32CCCc3sc(N)c(C#N)c32)nc2c1ncn2[C@@H]1CCOC1)[C@@H]1CCCN1C [I-38]
 |  | 41 nM | 54 nM | 61 nM |  | CO[C@H]1CCN(C)[C@@H]1[C@H](C)Oc1nc(-c2noc3c2CCC[C@@]32CCCc3sc(N)c(C#N)c32)nc2c1n(C)c(=O)n2[C@@H]1CCOC1 [II-1]
 |  | 32 nM | 52 nM | 24 nM |  | C[C@H](Oc1nc(-c2noc3c2CCC[C@@]32CCCc3sc(N)c(C#N)c32)nc2c1n(C)c(=O)n2[C@@H]1CCOC1)[C@@H]1CCCN1C [II-2]
 |  | 25 nM | 33 nM | 12 nM | 83% | C[C@H](Oc1nc(-c2onc3c2CCC[C@@]32CCCc3sc(N)c(C#N)c32)nc2c1COC[C@]21CCOC1)[C@@H]1CCCN1C [I-54]
